Source: ChEMBL document CHEMBL5376006, “Discovery of a Hidden Pocket beneath the NES Groove by Novel Noncovalent CRM1 Inhibitors” (J Med Chem, 2023)
Each block holds one molecule with its values, some of them ahead of it. The source made the active and inactive calls. No cut-off for these calls is given here.

Key:
[1] = target: T1, Exportin-1 (Homo sapiens, UniProt O14980); test: Inhibition of CRM1 (unknown origin) binding to GST-tagged NES PKI assessed as CRM1/NES band ratio incubated for 1.5 hrs by Coomassie brilliant blue staining based pull-down assay (reference value: 1.00); set-up: concentration or dose not given beside the values
[2] = target: T1, Exportin-1; test: Inhibition of CRM1 (unknown origin) binding to GST-tagged NES PKI at 100 uM incubated for 1.5 hrs by Coomassie brilliant blue staining based pull-down assay
[3] = target: T1, Exportin-1; test: Inhibition of GFP-fused CRM1 cargo nuclear export in human HeLa cells at 200 uM incubated for 4 hrs by confocal microscopic analysis; type: cell-based
[4] = test system: HeLa; test: Antiproliferative activity against human HeLa cells assessed as inhibition of cell growth at 20 uM incubated for 72 hrs by SRB assay; type: functional, cell-based
[5] = target: T1, Exportin-1; test: Inhibition of CRM1 (unknown origin) binding to GST-tagged NES PKI assessed as CRM1/NES band ratio at 20 uM incubated for 1.5 hrs by Coomassie brilliant blue staining based pull-down assay
[6] = target: T1, Exportin-1; test: Inhibition of CRM1 cargo nuclear export in human MCF7 cells at 50 uM incubated for 4 hrs by confocal microscopic analysis; type: cell-based

T1 sequence (O14980 whole entry): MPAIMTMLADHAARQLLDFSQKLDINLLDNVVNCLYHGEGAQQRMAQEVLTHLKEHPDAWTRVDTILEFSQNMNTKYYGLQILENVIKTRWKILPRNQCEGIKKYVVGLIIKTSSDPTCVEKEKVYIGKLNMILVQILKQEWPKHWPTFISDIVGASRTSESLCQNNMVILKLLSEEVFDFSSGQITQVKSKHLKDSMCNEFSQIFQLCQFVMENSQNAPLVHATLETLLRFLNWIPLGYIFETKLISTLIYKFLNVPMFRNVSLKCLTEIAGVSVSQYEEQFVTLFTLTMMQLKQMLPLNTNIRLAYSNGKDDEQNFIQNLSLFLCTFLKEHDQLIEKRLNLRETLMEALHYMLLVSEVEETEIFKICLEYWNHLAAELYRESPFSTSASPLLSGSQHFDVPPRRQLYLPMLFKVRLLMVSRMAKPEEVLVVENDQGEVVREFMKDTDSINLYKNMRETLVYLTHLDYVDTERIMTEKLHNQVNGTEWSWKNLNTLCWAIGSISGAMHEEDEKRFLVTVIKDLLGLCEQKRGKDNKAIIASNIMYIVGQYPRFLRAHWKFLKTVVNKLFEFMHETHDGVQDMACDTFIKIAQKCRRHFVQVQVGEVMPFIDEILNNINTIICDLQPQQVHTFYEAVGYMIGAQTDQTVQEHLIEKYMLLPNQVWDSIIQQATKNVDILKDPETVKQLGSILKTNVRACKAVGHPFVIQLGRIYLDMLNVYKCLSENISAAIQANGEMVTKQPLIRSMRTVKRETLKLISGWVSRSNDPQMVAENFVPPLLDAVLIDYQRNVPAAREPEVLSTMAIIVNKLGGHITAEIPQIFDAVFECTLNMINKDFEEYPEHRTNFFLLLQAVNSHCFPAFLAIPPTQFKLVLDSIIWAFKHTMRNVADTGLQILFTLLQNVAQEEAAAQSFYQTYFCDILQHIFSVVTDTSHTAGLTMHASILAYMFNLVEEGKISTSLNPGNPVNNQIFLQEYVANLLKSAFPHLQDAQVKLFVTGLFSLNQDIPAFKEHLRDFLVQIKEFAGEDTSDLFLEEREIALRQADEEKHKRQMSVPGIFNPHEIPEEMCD

Structure (SMILES): Cc1cccc(C(=O)Nc2cc(C(=O)O)ccc2N2CCN(c3ccccc3F)CC2)c1
Ratio [1]: 1.13

Structure (SMILES): Cc1cccc(C(=O)Nc2cc(C(=O)O)ccc2N2CCN(c3cccc(C)c3)C(C)C2)c1 (centres undefined)
Ratio [1]: 0.76

Structure (SMILES): O=C(O)c1ccc(N2CCN(c3cccc(C(F)(F)F)c3)CC2)c(NC(=O)c2ccc(F)cc2)c1
inhibition [2]: Active | inhibition [3]: inactive | Ratio [1]: 0.28

Structure (SMILES): O=C(O)c1ccc(N2CCN(c3ccc(F)cc3)CC2)c(NS(=O)(=O)c2cc(F)ccc2F)c1
Ratio [1]: 0.83

Structure (SMILES): Cc1cccc(C(=O)Nc2cc(C(=O)O)ccc2N2CCC(CCN3CCCCC3)CC2)c1
Ratio [1]: 0.81

Structure (SMILES): O=C(O)c1ccc(N2CCN(c3ccccc3F)CC2)c(NC(=O)c2ccc(Br)cc2)c1
Ratio [1]: 0.68

Structure (SMILES): O=C(O)c1ccc(N2CCC(N3CCCCC3)CC2)c(NC(=O)c2cccc(Cl)c2)c1
Ratio [1]: 0.91

Structure (SMILES): O=C(O)c1ccc(N2CCCN(c3ccc(Cl)nn3)CC2)c(NC(=O)c2ccccc2)c1
Ratio [1]: 0.8

Structure (SMILES): O=C(O)c1ccc(N2CCN(c3cccc(Cl)c3)CC2)c(NS(=O)(=O)c2cccc(F)c2)c1
inhibition [3]: inactive | Ratio [1]: 0.43

Structure (SMILES): O=C(O)c1ccc(N2CCC(N3CCCCC3)CC2)c(NC(=O)c2ccc(F)cc2)c1
Ratio [1]: 0.83

Structure (SMILES): COc1ccc(Cl)cc1N1CCN(c2ccc(C(=O)O)cc2NC(=O)c2ccc(Cl)cc2)CC1
Activity [4]: Active | Ratio [5]: 0.85

Structure (SMILES): COc1ccccc1N1CCN(c2ccc(C(=O)O)cc2NC(=O)c2ccc(Cl)cc2)CC1
Ratio [1]: 0.88

Structure (SMILES): O=C(O)c1ccc(N2CCN(c3ccc(F)cc3)CC2)c(NS(=O)(=O)c2cccc(F)c2)c1
Ratio [1]: 0.85

Structure (SMILES): Cc1cccc(C(=O)Nc2cc(C(=O)O)ccc2N2CCC(N3CCCCC3)CC2)c1
Ratio [1]: 0.81

Structure (SMILES): Cc1ccc(C(F)(F)F)cc1N1CCN(c2ccc(C(=O)O)cc2NC(=O)c2ccc(Cl)cc2)CC1
Activity [4]: Active | Ratio [5]: 0.2

Structure (SMILES): COC(=O)c1ccc(N2CCN(c3cc(C)ccc3C)CC2)c(NC(=O)c2ccc(Cl)cc2)c1
inhibition [2]: inactive

Structure (SMILES): Cc1ccc(Cl)cc1N1CCN(c2ccc(C(=O)O)cc2NC(=O)c2ccc(C(F)(F)F)cc2)CC1
Activity [4]: Active | Ratio [5]: 0.35

Structure (SMILES): COC(=O)c1ccc(N2CCN(c3cc(C(F)(F)F)cc(C(F)(F)F)c3)CC2)c(NC(=O)c2ccc(Br)cc2)c1
inhibition [6]: inactive | inhibition [2]: inactive

Structure (SMILES): O=C(O)c1ccc(N2CCN(C3CCCCC3)CC2)c(NC(=O)c2ccc(F)cc2)c1
Ratio [1]: 0.88

Structure (SMILES): COC(=O)c1ccc(N2CCN(c3cc(C(F)(F)F)ccc3C(F)(F)F)CC2)c(NC(=O)c2ccc(Cl)cc2)c1
inhibition [6]: inactive | inhibition [2]: inactive

Structure (SMILES): O=C(O)c1ccc(N2CCN(c3ccc(F)cc3)CC2)c(NC(=O)c2ccc(F)cc2)c1
Ratio [1]: 1.15

Structure (SMILES): Cc1ccc(C)c(N2CCN(c3ccc(C(=O)O)cc3NC(=O)c3ccc(F)cc3)CC2)c1
Ratio [1]: 0.82

Structure (SMILES): COC(=O)c1ccc(N2CCN(c3cc(Cl)ccc3OC)CC2)c(NC(=O)c2ccc(Cl)cc2)c1
inhibition [2]: inactive

Structure (SMILES): O=C(O)c1ccc(N2CCN(c3ccc(F)cc3)CC2)c(NS(=O)(=O)c2ccc(F)c(F)c2)c1
Ratio [1]: 0.88

Structure (SMILES): O=C(O)c1ccc(N2CCN(c3cccc(F)c3)CC2)c(NC(=O)c2ccc(Cl)cc2)c1
Ratio [1]: 0.89

Structure (SMILES): O=C(O)c1ccc(N2CCN(CC(=O)N3CCCC3)CC2)c(NC(=O)c2ccccc2)c1
Ratio [1]: 1.08

Structure (SMILES): COC(=O)c1ccc(N2CCN(c3cc(C(F)(F)F)ccc3C)CC2)c(NC(=O)c2ccc(Cl)cc2)c1
inhibition [2]: inactive

Structure (SMILES): Cc1ccc(Cl)cc1N1CCN(c2ccc(C(=O)O)cc2NC(=O)c2ccc(Cl)cc2)CC1
Activity [4]: Active | Ratio [5]: 0.26

Further lines, with some results ahead:

Ratio [1]: 0.96
Structure (SMILES): Cc1ccc(C)c(S(=O)(=O)Nc2cc(C(=O)O)ccc2N2CCN(c3ccc(F)cc3)CC2)c1

Ratio [1]: 0.84
Structure (SMILES): Cc1cccc(S(=O)(=O)Nc2cc(C(=O)O)ccc2N2CCN(c3ccc(F)cc3)CC2)c1

Ratio [5]: 0.32
Structure (SMILES): O=C(O)c1ccc(N2CCN(c3cc(Cl)ccc3Cl)CC2)c(NC(=O)c2ccc(Cl)cc2)c1
Activity [4]: Active

inhibition [2]: inactive
Structure (SMILES): COC(=O)c1ccc(N2CCN(c3cccc(C(F)(F)F)c3)CC2)c(NC(=O)c2ccc(Br)cc2)c1

inhibition [3]: inactive | Ratio [1]: 0.18
Structure (SMILES): Cc1ccc(Cl)cc1N1CCN(c2ccc(C(=O)O)cc2NC(=O)c2ccc(F)cc2)CC1

inhibition [6]: inactive | inhibition [2]: inactive
Structure (SMILES): COC(=O)c1ccc(N2CCN(c3cc(C(F)(F)F)ccc3C(F)(F)F)CC2)c(NC(=O)c2ccc(Br)cc2)c1

Ratio [5]: 0.15
Structure (SMILES): O=C(O)c1ccc(N2CCN(c3cc(C(F)(F)F)ccc3Cl)CC2)c(NC(=O)c2ccc(Br)cc2)c1
Activity [4]: Active

Ratio [1]: 0.87
Structure (SMILES): Cc1cccc(N2CCN(c3ccc(C(=O)O)cc3NC(=O)c3ccc(F)cc3)CC2C)c1 (centres undefined)

inhibition [2]: inactive
Structure (SMILES): COC(=O)c1ccc(N2CCN(c3cc(Cl)ccc3C)CC2)c(NC(=O)c2ccc(C(F)(F)F)cc2)c1

Ratio [5]: 0.29
Structure (SMILES): O=C(O)c1ccc(N2CCN(c3cccc(C(F)(F)F)c3)CC2)c(NC(=O)c2ccc(Br)cc2)c1
Activity [4]: Active

Ratio [1]: 1.09
Structure (SMILES): Cc1ccc(C)c(N2CCN(c3ccc(C(=O)O)cc3NC(=O)c3ccccc3C)CC2)c1

Ratio [1]: 1.07
Structure (SMILES): Cc1cccc(S(=O)(=O)Nc2cc(C(=O)O)ccc2N2CCN(c3ccc(Cl)cc3)CC2)c1

Ratio [1]: 0.95
Structure (SMILES): Cc1ccc(C)c(S(=O)(=O)Nc2cc(C(=O)O)ccc2N2CCN(c3ccccc3F)CC2)c1

inhibition [2]: inactive
Structure (SMILES): COC(=O)c1ccc(N2CCN(c3cc(Cl)ccc3C)CC2)c(NC(=O)c2ccc(Br)cc2)c1

Ratio [5]: 0.28
Structure (SMILES): O=C(O)c1ccc(N2CCN(c3ccccc3C(F)(F)F)CC2)c(NC(=O)c2ccc(Br)cc2)c1
Activity [4]: Active

Ratio [5]: 0.24
Structure (SMILES): Cc1ccc(Cl)cc1N1CCN(c2ccc(C(=O)O)cc2NC(=O)c2ccc(Br)cc2)CC1
Activity [4]: Active

Ratio [1]: 0.72
Structure (SMILES): O=C(O)c1ccc(N2CCN(c3ccccn3)CC2)c(NC(=O)c2cccc(Cl)c2)c1

Ratio [1]: 0.72
Structure (SMILES): O=C(O)c1ccc(N2CCN(Cc3cccc(F)c3)CC2)c(NC(=O)c2ccccc2)c1

inhibition [2]: inactive
Structure (SMILES): COC(=O)c1ccc(N2CCN(c3cc(C(F)(F)F)ccc3Cl)CC2)c(NC(=O)c2ccc(Br)cc2)c1

Ratio [1]: 0.85
Structure (SMILES): O=C(O)c1ccc(N2CCN(c3ccccn3)CC2)c(NC(=O)c2ccc(Cl)cc2)c1

inhibition [2]: inactive
Structure (SMILES): COC(=O)c1ccc(N2CCN(c3ccccc3C(F)(F)F)CC2)c(NC(=O)c2ccc(Br)cc2)c1

inhibition [2]: inactive
Structure (SMILES): COC(=O)c1ccc(N2CCN(c3cc(Cl)ccc3C)CC2)c(NC(=O)c2ccc(Cl)cc2)c1

Ratio [1]: 0.81
Structure (SMILES): Cc1cccc(N2CCN(c3ccc(C(=O)O)cc3NC(=O)c3ccccc3)CC2C)c1 (centres undefined)

inhibition [2]: inactive
Structure (SMILES): COC(=O)c1ccc(N2CCN(c3cc(Cl)ccc3Cl)CC2)c(NC(=O)c2ccc(Cl)cc2)c1

Ratio [1]: 1.24
Structure (SMILES): O=C(O)c1ccc(N2CCN(c3ccc(F)cc3)CC2)c(NC(=O)c2ccc(Br)cc2)c1
